From patent US20250114367A1, “METHOD OF TREATING HAIR LOSS DISORDERS” (Sun Pharmaceutical Industries, Inc., priority 2023, published 2025) come the findings set out here.

Common to all, as to assay type: in vivo, human
Assay [1] has as its system adult subjects with moderate to severe AA. Kind of assay: Phase III trial: Hair Quality Patient Reported Outcome (QPRO). The following applies: Weeks 12, 16, 20, and 24. As to the method:
(§1) A Phase III trial was conducted to assess the efficacy and safety of CTP-543 in adult subjects with moderate to severe AA. Approximately 440 adult male and female subjects 18 to 65 years of age, inclusive, with moderate to severe AA participated in the study. Subjects with definitive diagnosis of AA, and at least 50% hair loss, as defined by a SALT score ≥50, who met all of the inclusion criteria and none of the exclusion criteria participated in the study.
(§2) The Screening Period lasted up to 28 days prior to initiation of study drug. […] Randomization was stratified by scalp hair loss into 1 of the following 2 categories: 1) partial scalp hair loss (SALT ≥50 and <95), 2) complete or near complete scalp hair loss (SALT ≥95).
(§3) Additional secondary efficacy endpoints included the following: • Relative change in SALT scores from baseline at Weeks 4, 8, 12, 16, 20, and 24. • Percentage of responders (defined as “much improved” or “very much improved”) using the Clinical Global Impression of Improvement (CGI-I) at Weeks 12, 16, 20, and 24. • Percentage of responders (defined as “much improved” or “very much improved”) using the Patient Global Impression of Improvement (PGI-I) at Weeks 12, 16, 20, and 24. • Change from baseline in the Clinical Global Impression of Severity (CGI-S) at Weeks 12, 16, 20, and 24. • Change from baseline in the Patient Global Impression of Severity (PGI-S) at Weeks 12, 16, 20, and 24. • Change from baseline on the Brigham Eyebrow Tool for Alopecia (BETA) score at Weeks 12 and 24. • Change from baseline on the Brigham Eyelash Tool for Alopecia (BELA) score at Weeks 12 and 24. • Percentage of subjects achieving at least a 75% relative reduction in SALT score from baseline at Weeks 12 and 24. • Percentage of subjects achieving at least a 90% relative reduction in SALT score from baseline at Weeks 12 and 24. • Percentage of responders (defined as “satisfied” or “very satisfied”) on the SPRO scale at Weeks 12, 16, and 20. • Change from baseline in the SPRO scale at Weeks 12, 16, 20, and 24. • Percentage of subjects achieving a ≥2-point change from baseline in the SPRO scale at Weeks 12, 16, 20, and 24. • Change from baseline on the individual items of the Hair Quality Patient Reported Outcome (QPRO) scale at Weeks 12, 16, 20, and 24. • Change from baseline in the depression scale of the Hospital Anxiety and Depression Scale (HADS) at Week 24. • Change from baseline in the anxiety scale of the HADS at Week 24. • Percentage of subjects achieving an absolute SALT score of ≤20 at Week 4. • Percentage of subjects achieving an absolute SALT score of ≤10 at Week 24
The individual items of satisfaction with thickness of hair coverage, satisfaction with evenness of hair coverage, satisfaction with eyebrows, and satisfaction with eyelashes are rated on a scale of 1 to 5. A decrease from baseline in the QPRO score represents improvement. For each item and time point, treatment group differences favored CTP-543 over placebo.

Assay [2] shares this test system. Kind of assay: Phase III trial: Brigham Eyelash Tool for Alopecia (BELA). As for the experimental part:
The BELA is a clinician-rated scale developed by dermatologists at Brigham and Women's Hospital that assesses the total eyelash hair present Manjaly, P. et al., Development and validation of the Brigham Eyelash Tool for Alopecia (BELA): A measure of eyelash alopecia areata, J Am Acad Dermatol (2021) 1-2. The BELA is calculated based on grade values (range 0 to 3) and distribution. The BELA score is the sum of the individual scores for the left and right eyes (range 0 (absent) to 6). The same expert panel of certified raters at Brigham and Women's Hospital who performed the BETA assessment also performed central readings based on photographs of the eyelashes and determined a score for each subject with eyelash involvement following each visit where an assessment of eyelash hair presence was assessed. The BELA was performed at baseline, Week 12, and Week 24. If a subject was unable to attend an in-person clinic visit due to COVID-19, the BELA may not have been performed due to the inability to take photographs of the eyelashes.
as §1
The Screening Period lasted up to 28 days prior to initiation of study drug. […] Randomization was stratified by scalp hair loss into 1 of the following 2 categories: 1) partial scalp hair loss (SALT ≥50 and <95), 2) complete or near complete scalp hair loss (SALT ≥95). […]

For assay [3] the test system is unchanged. Kind of assay: Phase III trial: Patient Global Impression of Improvement (PGI-I). The following applies: non-missing data. As for the experimental part: The PGI-I was assessed by the subject. Compared to the subject's AA prior to treatment at baseline, the subject's current state of AA was assessed according to his/her perceived change. The subject selected 1 of 7 numeric choices representing “Very Much Worse” to “Very Much Improved.” If a subject was unable to attend an in-person clinic visit due to COVID-19, the PGI-I was to be performed via a virtual visit with video capability.
as §1, §2, §3
Detailed data are described below.

As for `[2H]C1([2H])C([C@@H](CC#N)n2cc(-c3ncnc4[nH]ccc34)cn2)C([2H])([2H])C([2H])([2H])C1([2H])[2H]` [CTP-543, (R)-3-(4-(7H-pyrrolo[2,3-d]pyrimidin-4-yl)-1H-pyrazol-1-yl)-3-(cyclopentyl-2,2,3,3,4,4,5,5-d8) propanenitrile], the “QPRO satisfaction with evenness of hair coverage, treatment group difference from placebo” value in assay [1] (8 mg BID) is reported as −1.3 to −0.9; in assay [1] (12 mg BID), −1.5 to −1.0. Moreover, the “QPRO satisfaction with eyebrows, treatment group difference from placebo” value is −1.2 to −1.0 in assay [1] (8 mg BID) and −1.5 to −1.1 in assay [1] (12 mg BID). The results for the “QPRO satisfaction with eyelashes, treatment group difference from placebo” value in assay [1] (8 mg BID) and in assay [1] (12 mg BID) were −1.2 to −0.9 and −1.4 to −0.9, respectively. Also, the figures for the “QPRO satisfaction with thickness of hair coverage, treatment group difference from placebo” value in assay [1] (8 mg BID) and in assay [1] (12 mg BID) were −1.3 to −1.0 and −1.6 to −1.1, respectively. Also, the “BELA score, LS mean change from baseline” value in assay [2] (Week 12, 8 mg BID) was 0.9; in assay [2] (Week 12, 12 mg BID), 1.0; in assay [2] (Week 24, 8 mg BID) it was 1.4; in assay [2] (Week 24, 12 mg BID), 1.5. For the same compound, the “percentage of PGI-I responders (very much improved or much improved)” value amounted to 50.9% in assay [3] (Week 24, 8 mg BID); 68.3% in assay [3] (Week 24, 12 mg BID); 43.3% in assay [3] (week 12, 8 mg BID); 49.2% in assay [3] (week 12, 12 mg BID); 46.2% in assay [3] (week 16, 8 mg BID); 59.8% in assay [3] (week 16, 12 mg BID). The “percentage of PGI-I responders (very much improved or much improved)” value is reported as 48.7% in assay [3] (week 20, 8 mg BID) and 64.4% in assay [3] (week 20, 12 mg BID).
